Each structure is given as a SMILES string.

For the test, the system named is Plasmodium falciparum. Nature of the test: GSK_TCMDC: Inhibition of Plasmodium falciparum 3D7 in whole erythrocytes, using parasite LDH activity as an index of growth. Particulars: Plasmodium falciparum, 3D7. The test is classed as functional, organism-based.
As to `CN1CC=C(c2c[nH]c3ccc(OCc4ccccc4)cc23)CC1`, the XC50 amounted to 718 nM.

`COc1ccc2c(c1)CC1CN(CCCCNC(=O)c3ccc(NC(=O)c4cc(Cl)cc(Cl)c4)cc3)CCN1C2` (stereo not drawn) displayed an XC50 of 767 nM.

For `COc1ccc2nccc([C@@H](O)CN3CCC(NC(=O)Cc4cccc5c(Br)cccc45)CC3)c2c1`, the XC50 was found to be 796 nM.

Turning to `CCOc1ccc2c(=NN=Cc3ccccc3OC)cc(C)[nH]c2c1`, the XC50 is 496 nM.

`O=C(/C=C/c1ccc(Cl)c(Cl)c1)NCCCCCN1CCC(NC(=O)Nc2ccc3c(c2)OCO3)CC1` came in with an XC50 of 713 nM.

For the compound `Cc1cccc(OC(C)C(=O)Nc2cc(C(F)(F)F)ccc2N2CCOCC2)c1` (stereo not drawn), the XC50 amounted to 237 nM.

Consider `CCOc1ccc(NC(=O)c2cccc(CN3CCCN(Cc4cccc(O)c4)CC3)c2)cc1`, for which the XC50 is 1080 nM.

In turn, `c1ccc(C2=NN=C(c3ccccn3)C3C4CC(C23)C2C3CC(c5ccccc53)C42)nc1` (stereo not drawn) returned an XC50 of 853 nM.

Turning to `CC(C)(C(=O)NCCC1CCN(CCCCCNC(=O)/C=C/c2ccc(Cl)c(Cl)c2)CC1)c1ccc(Cl)cc1`, the XC50 stood at 1280 nM.

In the case of `CCNc1cc(C(=O)N[C@@H](Cc2ccccc2)[C@H](O)CNC(C)C)cc(N2CC(c3ccccc3)CCS2(=O)=O)c1` (stereo partly drawn), the XC50 worked out at 412 nM.

`Cc1ccc(Nc2nnc(SCC(=O)Nc3ccc(CN4CCCC4)cc3)s2)cc1`: the XC50 was 1210 nM.

Compound `O=C(NCCc1cccc(F)c1)c1cc(Br)cc(N2CCN(c3ccncc3)CC2)c1` yielded an XC50 of 764 nM.

On to `Ic1cc(CNC2CCCCC2)ccc1OCc1cccc(COc2ccc(CNC3CCCCC3)cc2I)c1`, for which the XC50 is 829 nM.

Compound `CC(Cc1ccc(NC(=O)c2ccc(CC(C)NCc3ccc(Cl)c(Cl)c3)cc2)cc1)NCCc1cccc(Cl)c1` (stereo not drawn) had an XC50 of 1000 nM.

For `COc1ccc(-c2ccc(CNCc3ccccc3)cc2)cc1S(=O)(=O)NCCN1CCCC1`, the XC50 was determined as 726 nM.

Compound `CNc1ccc(CNCc2cccc(-c3ccc(-c4nc5ccccc5[nH]4)s3)c2)cc1` came in with an XC50 of 734 nM.

Consider `O=C(/C=C/c1ccc(Cl)c(Cl)c1)NCCCCCCN1CCN(C(=O)Nc2ccc(F)c(Cl)c2)CC1`, for which the XC50 was found to be 938 nM.

Turning to `Cc1cccc2nc(-c3ccc(-c4ccc(CN5CC(C)OC(C)C5)cc4)cc3)[nH]c12` (stereo not drawn), the XC50 turned out to be 523 nM.

Compound `COc1ccc2nccc([C@@H](O)CN3CCC(NCCNc4ccccn4)CC3)c2c1` displayed an XC50 of 741 nM.

`COc1cc2nc(N3CCC(CNC(=O)c4ccc(-c5ccc(C#N)cc5)cc4)CC3)nc(N)c2cc1OC`: the XC50 was determined as 796 nM.

Turning to `O=C(NCCCCN1CCN(CC=Cc2ccccc2)CC1)c1ccc(NC(=O)c2cc(Cl)cc(Cl)c2)cc1`, the XC50 was 208 nM.

Take `COc1cc(Cc2cnc(N)nc2N)cc(OCCCCC2SC(=O)NC2=O)c1OC` (stereo not drawn): the XC50 is 30.7 nM.

As to `CC(=O)N(C)c1ccc(C(=O)Nc2cccc(-c3cccc(-c4nc5cccc(C)c5[nH]4)c3)c2)cc1`, the XC50 was found to be 620 nM.

For the compound `COC(=O)c1cccc(CNCc2cccc(-c3ccc(-c4nc5cc(C(F)(F)F)ccc5[nH]4)cc3)c2)c1`, the XC50 turned out to be 257 nM.

In the case of `Cc1ccc([S+]([O-])Cc2ccc(Cl)cc2)cc1` (stereo not drawn), the XC50 came to 196 nM.

Consider `CC(CNC(=O)c1cc2c(Cl)cc(Cl)cc2[nH]1)CNc1cc(=O)c2ccccc2[nH]1` (stereo not drawn), for which the XC50 turned out to be 715 nM.

`CCNc1cc(C(=O)N[C@@H](Cc2cccc(Cl)c2)[C@H](O)CNC(C)CCCC(C)C)cc(N2CCCCS2(=O)=O)c1` (stereo partly drawn) registered an XC50 of 285 nM.

The compound `Cc1ccc(F)c(CN2CCC(N3CC(c4ccccc4)(c4ccccc4)OC3=O)CC2)c1Cl` displayed an XC50 of 593 nM.

Consider `Nc1nccc2ccc(-c3ccc(Oc4ccccc4)cc3)cc12`, for which the XC50 was determined as 278 nM.

On to `CC(C)(C)c1cc(CN2CCN(Cc3ccccc3)CC2)cc(C(C)(C)C)c1O`, for which the XC50 turned out to be 771 nM.

For `CC(C)(C)c1cc(C(=O)N2CCN(c3cnccn3)CC2)n(Cc2ccccc2)n1`, the XC50 was 1140 nM.

Turning to `CCOC(=O)c1ccc(NC(=O)NC2CCN(CCCCCNC(=O)/C=C/c3ccc(Cl)c(Cl)c3)C2)cc1` (stereo not drawn), the XC50 amounted to 487 nM.

As for `CC(C)c1ccc(NC(=O)c2cccc(CN3CCCN(Cc4cccc(C#N)c4)CC3)c2)cc1`, the XC50 amounted to 948 nM.

These data come from ChEMBL document CHEMBL1157539, “Thousands of chemical starting points for antimalarial lead identification” (Nature, 2010).
